Where a name gives a salt, the structure may show the parent alone. Each block holds one compound with its values, some of them ahead of it.
Assays:
[1] = test system: PCP-induced hyperlocomotor activity in mice; assay: Reversal of Phencyclidine (PCP)-Induced Hyperlocomotor Activity in Mice; assay type: in vivo, mouse
Text: This assay for Reversal of Phencyclidine (PCP)-Induced Hyperlocomotor Activity in Mice is run substantially as the Reversal of Phencyclidine (PCP)-Induced Hyperlocomotor Activity in Rats assay provided above, using mice instead of rats and with the changes noted below.
Motor activity is monitored by placing individual male, ICR (CD-1), (Harlan, Indianapolis, Ind.) mice in transparent, plastic shoe-box cages of the dimensions 45×25×20 cm, with 0.5 cm depth of wood chips as bedding, and plastic lid on top of the cage. Motor monitors (Kinder Scientific) consist of a rectangular rack of 12 photobeams arranged in an 8×4 formation, (or a high density grouping of 22 in a 15×7 pattern) at a height of 2.5 cm. The shoe box cage is placed inside of these racks, with the racks on a 3 foot high tabletop in an isolated room. A compound of the present invention is dosed (intraperitoneal route, non-prodrug) usually within a range of 0.3-30 mg/kg; though higher doses may be used, 30 minutes prior to a 7.5 mg/kg challenge dose of phencyclidine (PCP). On the test day, mice are placed in the test cage and allowed to acclimate for 45 minutes prior to PCP challenge; mice are monitored for an additional 60 minutes following PCP administration.
Power analyses have determined that 7-8 mice per group are needed to have appropriate statistical power for detecting treatment differences (power=0.8).

[2] = test system: immobility in forced swim test in mice; assay: Forced Swim Test in Rodents (mice); assay type: in vivo, mouse; conditions: for ED60 (60% of the amount of immobility relative to vehicle controls): intraperitoneal dosing 60 min prior to testing
Method: In this assay, mechanisms with purported antidepressant-like activity decrease immobility in a brief inescapable forced swim episode.
The forced-swim test was conducted in mice (male, NIH-Swiss mice, 20-25 g, Harlan Sprague-Dawley, Indianapolis, Ind.). Mice are placed in clear plastic cylinders (diameter 10 cm; height: 25 cm) filled to 6 cm with 22-25° C. water for six min. The duration of immobility is recorded during the last 4 min of a six-minute trial. The compounds of Examples 2, 3, 8, 11, and 12 are tested following intraperitoneal dosing, 60 min prior to testing. Imipramine is used as a positive control for these studies. Compounds are formulated in a water vehicle, with minimal NaOH added. The amount of time spent immobile (defined as movements only necessary to keep the subject's head above water) is the dependent measure and recorded by an observer blinded to the drug treatment of the subjects. Data are analyzed by post-hoc Dunnett's test with alpha level set at 0.05.

[3] = In Vitro Intestinal Prodrug Hydrolysis Assay; assay type: in vitro ADME; conditions: 1 h, 10 µM, pH 7.4
Method: Frozen human duodenum intestinal homogenates (1:2 tissue:buffer ratio using 100 mM Tris Phosphate buffer, pH 7.4) are obtained from Celsius In Vitro Technologies (Baltimore, Md.) that were both phenylmethylsulphonylfluoride (PMSF) and EDTA free.
Each lot of human duodenum is obtained from a single donor and the intestine is scraped and the sections are frozen separate. All original tissue collections are performed at 4° C. and immediately frozen at −70° C.
Hydrolysis of the positive control, Internal Prodrug Compound A to Internal Compound Drug A, run in every batch averaged 75.3% (n=20). Final values are then normalized relative to the formation of Internal Compound Drug A.

PepT1 = target: T1, PepT1 (Homo sapiens, UniProt P46059); assay: In Vitro PepT1 GlySar Inhibition Screen; assay type: cell-based; conditions: prodrug at 5 mM, pH 6.0, PepT1 transiently transfected HeLa cells, 5 μM [14C]Gly-Sar and 20 μM cold Gly-Sar; read-out: Mean GlySar Uptake Inhibition %
T1 construct: expressed in transfected cells; host or cells: HeLa cells (ATCC), transient transfection with FUGENE6
T1 sequence (P46059 1-708): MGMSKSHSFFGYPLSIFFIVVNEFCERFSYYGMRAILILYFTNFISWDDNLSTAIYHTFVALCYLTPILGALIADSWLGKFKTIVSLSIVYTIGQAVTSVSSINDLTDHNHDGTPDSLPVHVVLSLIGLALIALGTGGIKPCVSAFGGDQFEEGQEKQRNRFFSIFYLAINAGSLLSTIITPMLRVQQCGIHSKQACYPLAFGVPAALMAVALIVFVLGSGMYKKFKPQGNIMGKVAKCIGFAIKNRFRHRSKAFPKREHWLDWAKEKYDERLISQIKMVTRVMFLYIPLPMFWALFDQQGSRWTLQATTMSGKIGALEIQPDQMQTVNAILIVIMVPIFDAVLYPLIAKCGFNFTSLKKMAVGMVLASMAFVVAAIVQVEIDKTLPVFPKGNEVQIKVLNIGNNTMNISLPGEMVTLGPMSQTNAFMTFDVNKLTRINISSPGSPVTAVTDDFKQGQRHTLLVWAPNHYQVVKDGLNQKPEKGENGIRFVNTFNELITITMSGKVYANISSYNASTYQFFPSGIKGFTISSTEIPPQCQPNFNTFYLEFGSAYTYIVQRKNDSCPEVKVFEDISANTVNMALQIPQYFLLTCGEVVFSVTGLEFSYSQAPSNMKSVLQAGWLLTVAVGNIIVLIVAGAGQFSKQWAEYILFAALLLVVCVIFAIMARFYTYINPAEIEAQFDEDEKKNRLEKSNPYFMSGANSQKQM
Method: PepT1 assays are established to examine the ability of the amino acid prodrug compounds to interact with the intestinal absorption transporter PepT1.
HeLa cells, derived from human cancer cells, (American Type Culture Collection) are grown in Hyclone Medium (Invitrogen, Cat# SH30243) containing 10% fetal bovine serum (FBS), 0.1 mM non essential amino acids (NEAA), and 100 units/mL penicillin with 100 μg/mL streptomycin at 37° C. in a 5% CO2 humidified atmosphere. The cell line is used for up to 40 passages and then discarded. Frozen cells in 1 mL vials are thawed in water bath for 1-2 minutes and added to 5 mL of cell medium at 37° C. Each of the T-flasks is provided with 8.5 mL of the fresh medium and 1.5 mL of the cell stock. Cells are passaged twice during a week. […] Each new flask receives a combination of 8.5 mL of fresh medium and 1.5 mL of cell stock, in order to obtain 1:6 cell dilution. Cells are incubated at 37° C., until ready for the uptake study.
Cells that are 70-80% confluent in the T-flasks are plated 1 day prior to the transfection procedure. The flask with the cell stock is treated with PBS-EDTA and trypsin to detach the cells, and transfection medium is used from this point. Transfection medium consists of Dulbecco's Modified Eagle Medium (DMEM)+NEAA. To each well, 0.5 mL of the cell mixture is added (1.3×10^5 is the desired cell concentration) and the cells are incubated at 37° C. overnight. Twenty four hours before the assay, cells are transfected with PEPT1. Transfection mixture is prepared by mixing 600 μL of serum free transfection medium, 18 μL of FUGENE6® (Roche Diagnostics), and 11 μg of the PepT1 DNA. The transfection reagent-DNA complex is incubated for 20 minutes and 24 μL of the reagent-DNA complex is added to each well.
Inhibition of PEPT1-mediated [glycyl-1-2-^14C]Glyclysarcosine (GlySar) uptake activity is measured in the cells cultured in the 24-well plates 24-hours post transfection as previously published (Zhang et al. 2004. J. Pharm. Exper Ther. 310:437-445). To measure the ability of a compound of the present invention to inhibit the uptake of [^14C]Gly-Sar, prodrug compounds are incubated with 80 to 90% confluent PepT1 transiently transfected HeLa cells at 5 mM in pH 6.0 uptake medium in the presence of 5 μM [^14C]Gly-Sar (Moravek Biochemicals) and 20 μM cold Gly-Sar. Uptake media consists of 140 mM NaCl, 5.4 mM KCl, 1.8 mM CaCl2, 0.8 mM MgSO4, 5 mM Glucose, 25 mM tris(hydroxymethyl)aminomethane buffer (TRIS). The solution is then brought to pH 6.0 using 2-(N-morpholino)ethanesulfonic acid. The incubation volume is 500 μL and is performed at room temperature for 3 minutes. To stop the uptake at the conclusion of the incubation time, the uptake media is aspirated off of the cell monolayer and 500 μL of ice cold PBS added to the well. The cells are washed 3 times with 500 μL of room temperature PBS without Ca^+2 and Mg^+2. The cells are then lysed with 300 μL of 1% TRITON® X100 H2O solution. A 200 μL aliquot is removed and radioactivity is determined by liquid scintillation counting to measure the [^14C]Gly-Sar present in each of the incubation wells. A no inhibitor control is established and the percent inhibition of each prodrug is calculated with respect to this control.

[4] = test system: stress-induced hyperthermia in rats; assay: Attenuation of Stress-Induced Hyperthermia in Rats; assay type: in vivo, rat; conditions: i.p., 3 mg/kg
Text: In many anxiety disorders, hyperthermia occurs as part of the pathology and is considered a symptom of the disease. Compounds which attenuate stress-induced hyperthermia in animals are believed to be useful in treating anxiety disorders in humans. Generalized anxiety disorder is an example of such disorders that may be treated with such compounds. The conventional and minimally-invasive method for analyzing stress-induced hyperthermia is by measuring body temperature, and stress-induced increases in body temperature, via rectal thermometer. Male Fischer F-344 rats (Harlan, Indianapolis, Ind., USA) weighing between 275-350 g are tested. All animals are individually-housed with food and automated water available ad libitum, and maintained on a 12 h light/dark cycle (lights on at 06:00) Animals are fasted for approximately 12-18 hours before the experiment, which is conducted during the light phase. Rats are dosed one hour prior to the experiment by intraperitoneal (i.p.) route of administration in a dose volume of 1 mL/kg. The vehicle used was water with enough NaOH added to achieve a pH between 5-7. The mGluR5 antagonist MTEP (3-[(2-methyl-1,3-thiazol-4-yl)ethynyl]pyridine) and mGlu2/3 agonist LY317206 were used as quality controls, given that they produced reliable efficacy in this model Immediately following dosing, rats are returned to their home cage, and the experimenter turns off the lights and leaves the room. The dosing room is darkened for the remainder of the 1-hr pretreatment period.
After the pretreatment period, rats are taken individually to a brightly lit adjacent room where baseline body temperatures are determined by insertion of a rectal probe lubricated with mineral oil. Body temperature is assessed using a […] BAT-12® Microprobe Thermometer with a […] RET-2® rat rectal probe (Physitemp Instruments Inc., Clifton, N.J., USA). The probe is inserted approximately 2 cm into the rectum, to measure the core body temperature (this is the baseline body temperature, T1, in degrees Celsius). Ten minutes later a second body temperature measurement is recorded (T2). […]

SMILES: Cl.N[C@@]1(C(=O)O)C[C@@H](Sc2nnc(C(F)F)[nH]2)[C@H]2[C@H](C(=O)O)[C@H]21 [Example 8, (1R,2S,4R,5R,6R)-2-Amino-4-(5-difluoromethyl-1H-[1,2,4]triazol-3-ylsulfanyl)-bicyclo[3.1.0]hexane-2,6-dicarboxylic acid hydrochloride]
reversal of PCP-induced locomotor activity ([1]; single dose of 10 mg/kg): 52% | ED60 (60% of the amount of immobility relative to vehicle controls) [2]: 7.95 mg/kg

SMILES: N[C@@]1(C(=O)O)C[C@H](Sc2c[nH]nn2)[C@H]2[C@H](C(=O)O)[C@H]21 [Example 11, (1R,2S,4S,5R,6R)-2-Amino-4-(1H-triazol-4-ylsulfanyl)bicyclo[3.1.0] hexane-2,6-dicarboxylic acid hydrochloride]
ED50 ([1]; Mus musculus, i.p. administration, 30 minutes prior to 7.5 mg/kg PCP): 1.2 mg/kg | efficacy in forced swim test, second study ([2]; i.p., higher doses (3-30 mg/kg)): efficacy was lost | ED60 (60% of the amount of immobility relative to vehicle controls) [2]: 0.88 mg/kg

SMILES: CSCC[C@H](N)C(=O)N[C@@]1(C(=O)O)C[C@@H](Sc2cn[nH]n2)[C@H]2[C@H](C(=O)O)[C@H]21.Cl [Example 21, (1R,2S,4R,5R,6R)-2-((S)-2-Amino-4-methylsulfanyl-butyrylamino)-4-(2H-[1,2,3]triazol-4-ylsulfanyl)-bicyclo[3.1.0]hexane-2,6-dicarboxylic acid hydrochloride]
inhibition at 5000 µM (PepT1): 57.4% | In Vitro Human Intestinal Hydrolysis % (relative to positive control) [3]: 63.8%

SMILES: Cc1nc(C#Cc2cccnc2)cs1 [MTEP, 3-[(2-methyl-1,3-thiazol-4-yl)ethynyl]pyridine, reference compound]
reduction of stress-induced hyperthermia [4]: 53%

Second part, the compound after the results:

In Vitro Human Intestinal Hydrolysis % (relative to positive control) [3]: 63.3%
SMILES: CSCC[C@H](N)C(=O)N[C@@]1(C(=O)O)C[C@@H](Sc2nnc(C(F)(F)F)[nH]2)[C@H]2[C@H](C(=O)O)[C@H]21.Cl [Example 17, (1R,2S,4R,5R,6R)-2-((S)-2-Amino-4-methylsulfanyl-butyrylamino)-4-(5-trifluoromethyl-1H-[1,2,4]triazol-3-ylsulfanyl)-bicyclo[3.1.0]hexane-2,6-dicarboxylic acid hydrochloride]

In Vitro Human Intestinal Hydrolysis % (relative to positive control) [3]: 65.5%
SMILES: Cl.NCC(=O)N[C@@]1(C(=O)O)C[C@@H](Sc2nnc(C(F)(F)F)[nH]2)[C@H]2[C@H](C(=O)O)[C@H]21 [Example 18, (1R,2S,4R,5R,6R)-2-(glycylamino)-4-{[5-(trifluoromethyl)-1H-1,2,4-triazol-3-yl]sulfanyl}bicyclo[3.1.0] hexane-2,6-dicarboxylic acid hydrochloride]

In Vitro Human Intestinal Hydrolysis % (relative to positive control) [3]: 58.1%
SMILES: C[C@H](N)C(=O)N[C@@]1(C(=O)O)C[C@@H](Sc2cn[nH]n2)[C@H]2[C@H](C(=O)O)[C@H]21.Cl [Example 19, (1R,2S,4R,5R,6R)-2-[[(2S)-2-Aminopropanoyl]amino]4-(2H-1,2,3-triazol-4-ylsulfanyl)bicyclo[3.1.0] hexane-2,6-dicarboxylic acid hydrochloride]

— patent US9296710B2, “Bicyclo (3.1.0) hexane-2, 6-dicarboxylic acid derivatives as mGlu2 receptor agonist” (Eli Lilly and Company, priority 2011, dated 2016)
